Results from patent US20160166638A1, “LACTOFERRIN-OSTEOPONTIN-IRON COMPLEX” (NESTEC S.A., priority 2013, published 2016).

Test: Colour change of iron fortified strawberry-banana yoghurt after flash pasteurization (CIELAB colorimetry)
Assay type: physicochemical
Conditions: colour difference vs yoghurt with no iron salts; Jogolino Strawberry/Banana yoghurt, approx. 0.8 mg iron per 100 g; flash pasteurized at 105° C. for 2 minutes
Experimental: Commercial yoghurt, Nestlé Jogolino™ Strawberry/Banana yoghurt containing 15% banana puree and 10% strawberry puree, was iron fortified by the addition of different iron containing materials to 5 kg yoghurt as reported in the table below. The amounts were chosen to provide approximately 0.8 mg iron per 100 g yoghurt. A 100 g serving of yoghurt with that level of iron would provide 15% of the recommended daily amount of iron for an infant [Official Journal of the European Union, Commission Directive 2006/125/EC].
For the lactoferrin-osteopontin-iron complex (Trial B), the powder from Example 1 was added to yoghurt at a level of 28 g per 5 kg yoghurt. The resulting yoghurt composition comprised 5.6 g powder per kg which is 4 g LF-OPN-Fe complex per kg.
The yoghurts were flash pasteurized at 105° C. for 2 minutes. Colour measurements were performed in 1×1 cm polystyrene cuvettes using an X-Rite ColorEye 7000A colorimeter. The colorimeter was set up with a D65 light source, 10 degree observer angle and with specular component included. The colour difference between the yoghurt with no iron salts and the iron fortified yoghurt was measured for each iron salt and expressed as ΔEab* using the CIELAB colour scale.

| SMILES | ΔEab* |
| --- | --- |
| O.O=S(=O)([O-])[O-].[Fe+2] [FeSO4 × H2O] | 4.74 |
| O.O=C([O-])CN(CCN(CC(=O)[O-])CC(=O)[O-])CC(=O)[O-].[Fe+3].[Na+] [NaFeEDTA × H2O] | 3.11 |
